Consider five compounds from ChEMBL document CHEMBL1149872, “Glycosides from the root of Iodes cirrhosa” (2008).

The test system of the test is PC-12. Put plainly: Neuroprotective activity against rat PC12 cells assessed as glutamate-induced neurotoxicity at 10 uM after 24 hrs by MTT assay. Format: functional. For orientation: Tetrazolium assays rely on reduction of a dye to a coloured formazan, in cell work by metabolically active cells.
In the case of `COc1cc([C@@H](O)[C@H](CO)O[C@@H]2O[C@H](CO)[C@@H](O)[C@H](O)[C@H]2O)ccc1O`, the Activity is -46.6%. As for `COc1cc([C@H](O)[C@H](CO)O[C@@H]2O[C@H](CO)[C@@H](O)[C@H](O)[C@H]2O)ccc1O`, the figure is -32.9%; as for `COc1cc([C@H]2OC[C@H]3[C@@H]2CO[C@@H]3c2cc(OC)c(O[C@@H]3O[C@H](CO)[C@@H](O)[C@H](O)[C@H]3O)c(OC)c2)cc(OC)c1O[C@H]1O[C@@H](CO)[C@H](O)[C@@H](O)[C@@H]1O` [LIRIODENDRTACHIOSIDE], 20.5%; as for `COc1cc([C@H](O)[C@H](CO)O[C@@H]2O[C@H](CO)[C@@H](O)[C@H](O)[C@H]2O)cc(OC)c1O`, -28.4%. For `COc1cc([C@@H](O)[C@H](CO)Oc2ccc(CCCO[C@@H]3O[C@H](CO)[C@@H](O)[C@H](O)[C@H]3O)cc2O)ccc1O`, the Activity came to 36.4%.
